Reference: patent publication US11370825B2, “Polypeptides, cells, and methods involving engineered CD16” (Regents of the University of Minnesota, priority 2014, dated 2022)

Key:
[1] = tested on: NK92 cells; assay: Cell surface CD16a levels on transduced NK92 cells after activation, flow cytometry; type: cell-based, human
Experimental: FIG. 4. Effects of the engineered S197P mutation on CD16a shedding in NK cells. NK92 cells transduced with empty vector (vector only), CD16a, or CD16a/S197P were treated without (Unstim.) or with PMA (100 ng/ml) for 30 minutes at 37° C. (A), with IL-12 and IL-18 (100 ng/ml and 400 ng/ml, respectively) for 24 hours at 37° C. (B), or with Raji cells and rituximab for 60 minutes at 37° C. (C). Cell surface levels of CD16a were determined by flow cytometry. Isotype-matched negative control antibody staining is indicated by a dotted line. (D) Parent NK92 cells and transduced cells expressing CD16a or CD16a/S197P were treated with Raji cells and rituximab in the presence or absence of the ADAM17 inhibitor BMS566394 (5 μM) for 60 minutes at 37° C. Soluble CD16a levels were determined by ELISA. Each treatment condition was repeated three times and the data are representative of three independent experiments. Bar graphs show mean±SD. Statistical significance is indicated as ***P<0.001. (E) NK92 cells expressing CD16a or CD16a/S197P were stained with the anti-ADAM17 mAbs M220, 623, 633, or an isotype-matched negative control antibody, as indicated. (F) CD56^+CD45^+ NK cells derived from mock-transduced iPSCs (left panel) or iPSCs expressing recombinant CD16a or CD16a/S197P (right panels) were incubated with or without K562 target cells for four hours at 37° C. For all histogram plots, the x-axis=Log 10 fluorescence, the y-axis=cell number, and the data are representative of at least 3 independent experiments.
HEK293 cells (a human embryonic kidney cell line) and NK92 cells (a human NK cell line) (ATCC, Manassas, Va.) were cultured according to the depository's instructions. HEK293 cells were transiently transfected with pcDNA3.1 with or without CD16b, CD16b/S197P, and/or L-selectin using Lipofectamine 2000 (Invitrogen, Carlsbad, Calif.) according to the manufacturer's instructions. […] Construct expression was assessed by EGFP fluorescence and CD16 staining, as determined by flow cytometry. […]

[2] = tested on: ADAM17; assay: Soluble CD16a released from transfected HEK293 cells stably expressing human γ chain, ELISA (shedding); type: cell-based; conditions: untreated and PMA-treated HEK293 cells stably expressing human γ chain
Experimental: FIG. 3. Effects of the engineered S197P mutation on CD16a and CD16b shedding. Transfected HEK293 (human embryonic kidney) cells separately expressed CD16b and CD16b/S197P (A) or CD16a and CD16a/S197P (B) at similar levels, as determined by flow cytometry (left panels). The different transfectants were treated with or without PMA (15 ng/ml for 30 minutes at 37° C.) and soluble levels of CD16 in the media supernatant were quantified by ELISA (right panels). Each treatment condition was repeated three times for each experiment and the data are representative of three independent experiments. Bar graphs show mean±SD. Statistical significance is indicated as ***P<0.001. […] Surface levels of L-selectin and CD16b/S197P on transfected and mock-transfected cells were measured using flow cytometry (histogram plots). Transfectants expressing L-selectin or L-selectin and CD16b/S197P were incubated in the presence or absence of PMA for 30 minutes at 37° C., and the mean fluorescence intensity (MFI) of L-selectin staining determined (bar graph). […] For all histogram plots, the x-axis=Log 10 fluorescence and the y-axis=cell number.
HEK293 cells (a human embryonic kidney cell line) and NK92 cells (a human NK cell line) (ATCC, Manassas, Va.) were cultured according to the depository's instructions. […] Construct expression was assessed by EGFP fluorescence and CD16 staining, as determined by flow cytometry. […]

Substance | down-regulation in cell surface expression of CD16 ([1]; IL-12 100 ng/ml and IL-18 400 ng/ml, 24 hours at 37° C.) | down-regulation in cell surface expression of CD16 ([1]; PMA 100 ng/ml, 30 minutes at 37° C.) | down-regulation in cell surface expression of CD16 ([1]; Raji cells treated with rituximab, 60 minutes at 37° C.) | soluble levels of receptor in media supernatant compared to CD16a [2]
CD16a: Wild-type human IgG Fc receptor CD16a (FcγRIIIa), valine allelic variant, recombinant comparator [reference compound] | appreciable down-regulation | marked down-regulation | induced the down-regulation | –
CD16a/S197P: Human CD16a (FcγRIIIa, SEQ ID NO:1) with serine-197 substituted by proline in the membrane proximal cleavage region; expressed recombinantly in cells | – | – | – | significantly lower levels
